Data from patent EP0891773A1, “Use of gamma-linolenic acid for preventing oxydative stress” (priority 1997, dated 1999).
Like-named read-outs stand apart in the source and are kept apart here.

Test system: fibroblastes dermiques humains normaux
Experiment: Protective effect on normal human dermal fibroblasts under oxidative stress (TBH 10^-4 M, 1 h); cell viability by neutral red uptake
Type: cell-based
Details: for activity at 0.1 µM: 0,1 µM
Procedure: Mesure de l'effet protecteur de l'acide γ-linolénique sur des fibroblastes dermiques humains normaux soumis à un stress oxydatif:
Des cultures de fibroblastes dermiques humains normaux sont réalisées selon la méthode décrite par Gilchrest B. A. dans J. Gerontol., vol.35, pp. 537-541, 1980.
A J(0) on ensemence des plaques multipuits de type COSTAR à raison de 50000 cellules par puits. Les cellules sont cultivées dans du milieu MEM Eagle (GIBCO) contenant 10% de sérum de veau foetal, 2 mM de L-glutamine, 1% acides aminés non essentiels, 1 mM pyruvate de sodium et 1% d'un mélange antibiotiques/antimicotiques vendu par la société GIBCO.
A J(+1) le milieu de culture est remplacé par du milieu MEM sans sérum de veau foetal contenant ou ne contenant pas (témoin) la substance à tester.
Des solutions d'acides gras essentiels sont préparés dans des solutions à 0.1 % d'albumine humaine. Les solutions mères sont à 2. 10^-3 M , la dilution minimale est à 10^-4 M dans le milieu de culture sans sérum de veau foetal. L'addition de vitamine E à 30 µM final permet d'éviter les problèmes d'autooxydation des acides gras. Les cellules sont traitées 3 jours sans changement de milieu.
Un stress oxydatif est induit à J(+4). Pour cela, le milieu de culture est retiré et les plaques sont rincées avec du tampon phosphate salin (PBS). 50% des puits sont traités par une solution de terbutyl hydroperoxyde (TBH) à 10^-4 M, les 2 autres puits étant laissés en PBS et l'incubation se poursuit pendant une heure dans un incubateur à 37°C en atmosphère contenant 5% de CO2.
Au bout d'une heure, les plaques sont rincées 3 fois au PBS pour enlever toute trace de TBH. Une solution mère de rouge neutre à […] est diluée au 1/40 dans un milieu minimum (MEM de marque GIBCO). La solution diluée est placée 1h au bain marie à 37°C pour une bonne dissolution puis filtrée sur 0.22 µm pour éliminer les cristaux résiduels. La solution ainsi préparée est ajoutée sur les cellules et les plaques sont mises à l'incubateur à 37°C en atmosphère contenant 5% de CO2 pour 3 h. Après incubation les plaques sont vidées de leur milieu et rincées au PBS. Une solution à 0.4% de formaldéhyde et 1% de chlorure de calcium dans de l'eau est ajoutée dans chaque puits pour une durée de 1 minute. On remplace alors cette solution par une solution à 49% d'éthanol pur dans l'eau et 1% d'acide acétique glacial. On laisse la coloration se développer 30 mn à température ambiante et on lit les plaques au spectrophotomètre à 540 nm.
Pour chaque condition (traité ou témoin), le calcul est effectué de la manière suivante :
Proportion de cellules stressées : rapport de la moyenne des densités optiques mesurées pour les puits traités sur la moyenne des densités optiques mesurées pour les puits non traités.
Pourcentage de résistance : Proportion de cellules stressées dans l'essai sur proportion de cellules stressées dans le témoin x 100
Par ce calcul, le témoin est considéré à 100 % de protection contre le stress oxydatif et les produits présentent un effet protecteur supérieur ou inférieur au témoin.

[1] = Fibroblast, table a, comparison of essential fatty acids, 10 µM, 3 days pretreatment, then TBH 10^-4 M 1 h, control = 100, read-out: Pourcentage de résistance
[2] = Fibroblast, table c, comparison with known antioxidants, 10 µM, control = 100, read-out: Pourcentage de résistance
[3] = Fibroblast, table c, comparison with known antioxidants, 100 µM, control = 100, read-out: Pourcentage de résistance
[4] = Fibroblast, table c, comparison with known antioxidants, 1 mM, control = 100, read-out: Pourcentage de résistance

`CCCCC/C=C\C/C=C\CCCCCCCC(=O)O` [Acide Linoléique] gave an activity at 10 µM [1] of 100%.

Compound `CCCCC/C=C\C/C=C\C/C=C\CCCCC(=O)O` [Acide γ-Linolénique, acide γ-linolénique] has an activity at 0.01 µM (Fibroblast, table b, dose effect, 0,01 µM, control = 100, read-out: Pourcentage de résistance) of 123%, an activity at 0.1 µM (Fibroblast, table b, dose effect, control = 100, read-out: Pourcentage de résistance) of 130% and an activity at 1 µM (Fibroblast, table b, dose effect, 1 µM, control = 100, read-out: Pourcentage de résistance) of 119%. The activity at 10 µM (Fibroblast, table b, dose effect, 10 µM, control = 100, read-out: Pourcentage de résistance) was 121%, the activity at 100 µM (Fibroblast, table b, dose effect, 100 µM, control = 100, read-out: Pourcentage de résistance) was 95% and the activity at 0.1 µM (Fibroblast, table c, comparison with known antioxidants, control = 100, read-out: Pourcentage de résistance) was 112%. The activity at 10 µM [1] was 124%, the effet maximum (concentration of maximum effect in the dose-effect test (table b)) was 0,1 µM and the “résistance au stress oxydatif” value (conclusion in words on table a (10 µM), only this fatty acid among those tested) was “augmente la résistance au stress oxydatif”. For the same compound, the “effet protecteur du stress oxydatif” value (conclusion in words on table c, versus reference antioxidants) was “comparable à celui de molécules reconnues comme anti-oxydants de référence”.

With `N[C@@H](CCC(=O)N[C@@H](CS)C(=O)NCC(=O)O)C(=O)O` [Glutathion] the activity at 10 µM [2] was 95%, the activity at 100 µM [3] was 93% and the activity at 1000 µM [4] was 100%.

Work on `CC(=O)N[C@@H](CS)C(=O)O` [N-Acétyl cystéine] yielded an activity at 10 µM [2] of 94%, an activity at 100 µM [3] of 103% and an activity at 1000 µM [4] of 107%.

Work on `S=C(S)N1CCCC1` [Pyrrolidine dithiocarbamate] yielded an activity at 20 µM (Fibroblast, table c, comparison with known antioxidants, 20 µM, control = 100, read-out: Pourcentage de résistance) of 97% and an activity at 100 µM [3] of 112%.

For Vitamine E, the “Pourcentage de résistance” value (table c, comparison with known antioxidants, 10 µM, control = 100) was 112%, the “Pourcentage de résistance” value (table c, comparison with known antioxidants, 100 µM, control = 100) was 107% and the “Pourcentage de résistance” value (table c, comparison with known antioxidants, 1 mM, control = 100) was 111%.
